# Target: T1, Fatty acid synthase (Homo sapiens, UniProt P49327)
# Test: Inhibition of FAS
# Target sequence in this assay (P49327 whole entry): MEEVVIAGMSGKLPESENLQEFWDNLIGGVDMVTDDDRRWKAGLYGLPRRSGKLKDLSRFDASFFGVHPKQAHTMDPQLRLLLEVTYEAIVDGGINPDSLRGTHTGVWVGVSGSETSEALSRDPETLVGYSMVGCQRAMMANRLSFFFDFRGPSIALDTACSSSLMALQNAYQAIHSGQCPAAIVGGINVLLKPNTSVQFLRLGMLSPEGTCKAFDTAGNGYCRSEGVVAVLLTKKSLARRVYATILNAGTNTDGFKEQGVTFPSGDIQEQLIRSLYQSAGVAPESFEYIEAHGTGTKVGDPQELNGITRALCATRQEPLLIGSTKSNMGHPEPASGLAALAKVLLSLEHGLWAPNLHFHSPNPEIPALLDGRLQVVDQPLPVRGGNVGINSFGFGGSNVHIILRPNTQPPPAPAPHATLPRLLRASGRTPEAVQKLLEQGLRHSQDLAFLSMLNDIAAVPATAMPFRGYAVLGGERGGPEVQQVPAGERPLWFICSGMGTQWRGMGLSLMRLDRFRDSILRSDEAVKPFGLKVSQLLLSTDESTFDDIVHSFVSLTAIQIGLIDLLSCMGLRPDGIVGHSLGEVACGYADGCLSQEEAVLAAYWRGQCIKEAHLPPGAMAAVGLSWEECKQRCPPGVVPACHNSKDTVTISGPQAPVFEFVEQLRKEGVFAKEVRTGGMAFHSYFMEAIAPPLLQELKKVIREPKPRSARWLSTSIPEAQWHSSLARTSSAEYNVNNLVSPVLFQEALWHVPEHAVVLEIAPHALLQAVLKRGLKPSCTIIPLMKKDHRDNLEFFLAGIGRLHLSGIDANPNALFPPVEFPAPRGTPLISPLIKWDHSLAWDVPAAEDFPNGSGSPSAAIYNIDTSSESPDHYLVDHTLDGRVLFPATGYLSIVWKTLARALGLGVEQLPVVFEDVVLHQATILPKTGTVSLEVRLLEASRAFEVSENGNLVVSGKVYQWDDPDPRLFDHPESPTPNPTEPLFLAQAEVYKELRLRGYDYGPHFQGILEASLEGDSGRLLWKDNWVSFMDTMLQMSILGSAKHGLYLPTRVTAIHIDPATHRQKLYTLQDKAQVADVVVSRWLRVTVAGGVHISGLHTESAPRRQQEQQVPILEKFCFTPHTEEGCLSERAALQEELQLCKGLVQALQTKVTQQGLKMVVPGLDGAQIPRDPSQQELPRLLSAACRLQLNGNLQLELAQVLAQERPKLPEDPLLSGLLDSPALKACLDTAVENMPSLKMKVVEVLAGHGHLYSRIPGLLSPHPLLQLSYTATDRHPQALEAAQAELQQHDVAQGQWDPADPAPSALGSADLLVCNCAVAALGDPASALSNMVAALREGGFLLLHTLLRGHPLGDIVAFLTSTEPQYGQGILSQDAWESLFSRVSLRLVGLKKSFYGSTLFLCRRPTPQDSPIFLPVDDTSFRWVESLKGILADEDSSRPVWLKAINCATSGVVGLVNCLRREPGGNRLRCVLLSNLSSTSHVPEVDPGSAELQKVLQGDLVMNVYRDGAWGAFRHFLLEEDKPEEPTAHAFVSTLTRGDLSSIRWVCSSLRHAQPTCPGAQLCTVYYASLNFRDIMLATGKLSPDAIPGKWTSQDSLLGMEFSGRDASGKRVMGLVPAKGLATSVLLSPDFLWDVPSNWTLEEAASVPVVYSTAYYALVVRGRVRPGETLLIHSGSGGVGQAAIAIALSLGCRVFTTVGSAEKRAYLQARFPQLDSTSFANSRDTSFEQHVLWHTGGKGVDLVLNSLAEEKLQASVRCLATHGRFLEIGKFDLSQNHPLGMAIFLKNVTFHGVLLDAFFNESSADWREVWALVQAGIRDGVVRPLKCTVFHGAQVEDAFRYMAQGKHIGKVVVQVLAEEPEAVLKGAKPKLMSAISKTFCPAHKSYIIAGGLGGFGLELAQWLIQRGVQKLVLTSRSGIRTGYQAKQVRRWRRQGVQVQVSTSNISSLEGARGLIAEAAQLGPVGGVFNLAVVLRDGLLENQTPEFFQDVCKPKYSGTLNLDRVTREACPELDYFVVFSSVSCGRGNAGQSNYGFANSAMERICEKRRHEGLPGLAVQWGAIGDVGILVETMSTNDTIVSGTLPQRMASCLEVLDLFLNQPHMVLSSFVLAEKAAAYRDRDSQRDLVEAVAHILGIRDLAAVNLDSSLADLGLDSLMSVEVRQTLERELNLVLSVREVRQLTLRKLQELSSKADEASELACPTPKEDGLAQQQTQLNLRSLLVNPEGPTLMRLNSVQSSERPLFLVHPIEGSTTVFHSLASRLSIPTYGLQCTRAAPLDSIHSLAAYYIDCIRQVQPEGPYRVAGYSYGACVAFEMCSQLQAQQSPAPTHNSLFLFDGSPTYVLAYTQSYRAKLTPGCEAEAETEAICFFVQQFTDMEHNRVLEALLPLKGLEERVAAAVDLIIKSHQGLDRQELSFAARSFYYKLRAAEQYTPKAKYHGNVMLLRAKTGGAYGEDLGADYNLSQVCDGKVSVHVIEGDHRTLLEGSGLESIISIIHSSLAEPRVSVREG
row,SMILES,IC50
1,Oc1cc(O)c2c(c1)O[C@H](c1ccc(O)c(O)c1)[C@H](O)C2 [(-)-EPICATECHIN],> 100 µM
2,O=c1c(O)c(-c2ccccc2)oc2ccccc12 [FLAVONOL],> 100 µM
3,O=c1cc(-c2ccc(O)c(O)c2)oc2cc(O)cc(O)c12 [LUTEOLIN],62.5 µM
4,CCCC(=O)C1=C(OC)C(C)C(O)=C(CC2=C(O)C(C)(C)C(O)=C(C(=O)CCC)C2=O)C1=O (stereo unspecified),32.6 µM
5,CCCC(=O)C1=C(O)C(C)C(O)=C(CC2=C(O)C(C)(C)C(O)=C(C(=O)CC)C2=O)C1=O (stereo unspecified),23.1 µM
6,CCCC(=O)C1=C(O)C(C)C(O)=C(CC2=C(O)C(C)(C)C(O)=C(C(C)=O)C2=O)C1=O (stereo unspecified),28.7 µM
7,C/C=C/C/C=C/CCC(=O)[C@H]1O[C@H]1C(N)=O [CERULENIN],13 µM
8,CCC(=O)C1=C(O)C(C)(C)C(O)=C(CC2=C(O)C(C)(C)C(O)=C(C(=O)CC)C2=O)C1=O,60.2 µM
9,CCCC(=O)C1=C(O)C(C)(C)C(O)=C(CC2=C(O)C(C)(C)C(O)=C(C(=O)CC)C2=O)C1=O,56.1 µM
10,CCC(=O)C1=C(O)C(C)(C)C(O)=C(CC2=C(O)C(C)(C)C(O)=C(C(C)=O)C2=O)C1=O,71.7 µM
11,CCCC(=O)c1c(O)c(C)c(O)c(Cc2c(O)c(C)c(O)c(C(=O)CCC)c2O)c1O,25.4 µM
12,CCCC(=O)C1=C(O)CC(O)=C(CC2=C(O)C(C)(C)C(O)=C(C(C)=O)C2=O)C1=O,29.7 µM
13,CCCC(=O)c1c(O)cc(OC)c(C)c1O,49.1 µM
14,CCCC(=O)c1c(O)c(CC2=C(O)C(C)(C)C(O)=C(C(C)=O)C2=O)c(O)c(CC2=C(O)C(C)(C)C(O)=C(C(=O)CC)C2=O)c1O,31 µM

# Target: T1, Fatty acid synthase
# Test: Inhibition of FAS at 100 uM
# Target sequence in this assay (P49327 whole entry, looked up): as the sequence (P49327 whole entry) above
row,SMILES,inhibition
1,Oc1cc(O)c2c(c1)O[C@H](c1ccc(O)c(O)c1)[C@H](O)C2 [(-)-EPICATECHIN],10.2%
2,O=c1c(O)c(-c2ccccc2)oc2ccccc12 [FLAVONOL],6.5%
